Patent US20220358646A1, “CELL ACTIVITY MACHINE LEARNING” (Q-STATE BIOSCIENCES, INC., priority 2021, published 2022)

Tests used:
[1] = test system: hiPSC-derived motor neurons; assay: Optopatch optical stimulation and voltage recording of hiPSC-derived motor neurons before and after compound addition; type: cell-based, human
From the text: Human induced pluripotent stem cells (hiPSC) were differentiated into hiPSC-derived motor neurons. The cells expressed an optogenetic proteins from the Optopatch toolkit (optical stimulation plus optical voltage reporting, e.g., CheRiff & QuasAr), which allows simultaneous optical stimulation and recording of neuronal action potentials.
The channelrhodopsin CheRiff enables action potential stimulation with blue light and the voltage-sensitive fluorescent protein QuasAr enables high-speed electrical recordings with red light. A microscope, as disclosed herein, obtained simultaneous voltage recordings from >100 individual neurons over a large (0.5×4 mm) field of view (FOV) with 1 ms temporal resolution and high signal-to-noise ratio (SNR). A digital micromirror device (DMD) in the microscope projected a fully reconfigurable optical pattern to sequentially stimulate cells while recording from many post-synaptic partners. […]
In every trace the spikes were detected and the key spike shape and timing parameters were computed. […]
Pixels in the recording that captured fluorescence from the reporters of membrane potential in each neuron co-varied in time following that cell's unique firing pattern. […] Each FOV was recorded twice, before and after addition of potassium channel opener ML-213. […]

[2] = test system: E18 rat hippocampal neurons; assay: Optopatch functional phenotypes of compounds in cultured neurons; type: cell-based; conditions: normalized to control vehicle, 14 days culture
Protocol: E18 rat hippocampal neurons were cultured for 14 days and caused to express Optopatch proteins as described in Example 1. The cells were stimulated in the presence of XE-991 (a Kv7.x blocker), ML-213 (a Kv7.x opener), a-Dendrotoxin (a Kv1.x blocker), OXO-M (a muscarinic agonist), 4AP (a promiscuous Kv blocker), Isradipine (a Cav1.x blocker), or a control vehicle. FIG. 26 provides radar plots representing generated functional phenotypes indicative of the drug-induced changes in neuronal spiking behavior along many dimensions. The action potential feature values were normalized to those for the cells simulated in the presence of the control vehicle. As shown in the radar plots, each compound provided a discernable and unique functional phenotype. […] FIG. 27 provides concentration response curves for the cells in the presence of varied concentrations of the compounds. Each symbol represents >100 cells in one well and all measurements were obtained in a single day. Thus, the present systems and methods can not only elucidate therapeutic responses of various compounds, but also show concentration-dependent responses. Moreover, as the measurements were taken in a single day, the presently disclosed systems and methods enable fast, high-throughput drug screening.

[3] = test system: E18 rat hippocampal neurons; assay: Optopatch 96-well plate firing assay, alternating columns compound/vehicle; type: cell-based; conditions: ML-213 at 1 μM versus vehicle wells
Protocol: E18 rat hippocampal neurons were cultured for 14 days and caused to express Optopatch proteins as described in Example 1. The cells were placed in wells of a 96-well plate. ML-213 at 1 μM was added to alternating columns of the plate and a control vehicle added to the remaining columns. The cells in all wells were stimulated and their action potentials recorded using a microscope as described in Example 1.
FIG. 30 provides the average firing rate during the blue light stimulus ramp for each well.
FIG. 32 provides a plot of the average number of spikes recorded for individual cells in each well during the blue light stimulus ramp.

[4] = test system: iPSC-derived excitatory cortical neurons (NGN2) with loss of function knockout; assay: Optopatch functional phenotype reversal in knockout (KO) disease-model neurons versus wildtype control; type: cell-based, human; conditions: for cell behavior projected onto phenotype/side effect space: KO cells, 8 concentrations from 0.28 to 600 μM, two replicates; for reversal of disease-model functional phenotype (radar plot of action potential features): KO disease-model cells stimulated in presence of compound, normalized to control cells
Protocol: In this example, iPSC-derived excitatory cortical neurons (NGN2) were grown for 30 days in a culture. The neurons expressed Optopatch proteins as described in Example 1. Two sets of neurons were grown. The first was a wildtype control line.
The cells were stimulated using blue light as described in Example 1 and their action potentials recorded as voltage traces. Recordings were made of the control cells and disease-model cells when stimulated in the absence of any test compound. Recordings were also made of the disease-model cells when stimulated in the presence of the promiscuous potassium channel blocker 4-AP and the promiscuous sodium channel blocker lamotrigine.
FIG. 23 provides radar plots representing functional phenotypes generated by a machine learning system using action potential features extracted from the recorded action potentials when the cells were stimulated by blue light. The values for the features are normalized to the control cell recordings. […] The differences in the recorded traces, select features of which are provided on the radar plots, show the functional phenotype of the disease-model.
FIG. 24 is a diagram illustrating phenotype reversal and “side effects” described by mapping extracted action potential features on the ˜300-dimensional space of recorded parameters, only two of which are shown. Extracted features for the control cell (WT) wells (green) are clustered as are those for the KO cells (red). The vector between these populations represents the phenotype (red). Drug effects (blue) are deconstructed into components along (phenotype reversal) and orthogonal to (side effects) the phenotype vector. An ideal drug would undo the effects of the mutation and move the well from the KO cluster to the control cell cluster.
FIG. 25 is a plot showing many wells projected onto the phenotype/side effect space. WT and KO wells are well separated along the phenotype direction. Application of the two compounds (8 concentrations from 0.28 to 600 μM) from FIG. 25 have increasing effects on KO cell behavior as the concentration increases. […] The connected drug points are in order of increasing concentration, and the two lines are experimental replicates on two consecutive weeks of experiment.

Row | Structure (SMILES) | neuronal excitability ([1]; 1 μM ML-213, same neurons before and after addition, blue light stimulus) | resting potential and action potential firing ([1]; hiPSC-derived motor neurons) | drug-induced changes in neuronal spiking behavior (functional phenotype) [2] | average firing rate during the blue light stimulus ramp [3] | cell behavior projected onto phenotype/side effect space [4] | reversal of disease-model functional phenotype (radar plot of action potential features) [4]
1 | Cc1cc(C)c(NC(=O)C2CC3CCC2C3)c(C)c1 (stereo not drawn) [ML-213] | clear reduction in neuronal excitability | lowers resting potential and suppresses action potential firing | drove cellular response, as expected | dramatically reduces firing rate | – | –
2 | Nc1nnc(-c2cccc(Cl)c2Cl)c(N)n1 [lamotrigine] | – | – | – | – | moves behavior away from both WT and KO | perturbed behavior but did not reverse the phenotype
3 | O=C1c2ccccc2C(Cc2ccncc2)(Cc2ccncc2)c2ccccc21 [XE-991] | – | – | drove cellular response, as expected | – | – | –
4 | Nc1ccncc1 [4-AP] | – | – | – | – | moves cell behavior toward and beyond WT behavior | substantially reversed the phenotype
